Test results as given in ChEMBL document CHEMBL1909046, “DrugMatrix in vitro pharmacology data”.

Legend:
[1] = biological target: Cytochrome P450 3A4 (Homo sapiens, UniProt P08684); details: bti-tn-5b1-4
[2] = biological target: T1, Glucocorticoid receptor (Homo sapiens, UniProt P04150); details: hela s3
T1 sequence (P04150 whole entry): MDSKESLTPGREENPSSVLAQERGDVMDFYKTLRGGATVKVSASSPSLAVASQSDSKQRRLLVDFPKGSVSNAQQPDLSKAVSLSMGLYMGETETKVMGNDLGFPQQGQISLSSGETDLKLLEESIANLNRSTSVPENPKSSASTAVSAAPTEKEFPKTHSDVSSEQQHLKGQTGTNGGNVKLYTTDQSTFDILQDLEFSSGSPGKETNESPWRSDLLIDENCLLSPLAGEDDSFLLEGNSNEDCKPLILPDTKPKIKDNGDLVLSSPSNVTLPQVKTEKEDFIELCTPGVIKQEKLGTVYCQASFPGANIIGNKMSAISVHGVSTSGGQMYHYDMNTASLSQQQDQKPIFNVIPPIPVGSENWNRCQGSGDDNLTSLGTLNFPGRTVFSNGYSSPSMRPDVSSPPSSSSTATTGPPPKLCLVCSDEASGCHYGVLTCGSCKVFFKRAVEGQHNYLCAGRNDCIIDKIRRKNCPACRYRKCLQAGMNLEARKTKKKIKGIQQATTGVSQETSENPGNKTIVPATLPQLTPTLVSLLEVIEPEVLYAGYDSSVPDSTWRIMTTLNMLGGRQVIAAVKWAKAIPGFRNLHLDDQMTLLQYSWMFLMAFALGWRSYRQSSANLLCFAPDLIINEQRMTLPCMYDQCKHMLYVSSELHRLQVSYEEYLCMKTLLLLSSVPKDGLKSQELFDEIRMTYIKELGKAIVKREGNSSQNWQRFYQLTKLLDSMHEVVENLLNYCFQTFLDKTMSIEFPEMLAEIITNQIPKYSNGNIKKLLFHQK

[3] = biological target: T2, Estrogen receptor (Homo sapiens, UniProt P03372); details: sf9
T2 sequence (P03372 whole entry): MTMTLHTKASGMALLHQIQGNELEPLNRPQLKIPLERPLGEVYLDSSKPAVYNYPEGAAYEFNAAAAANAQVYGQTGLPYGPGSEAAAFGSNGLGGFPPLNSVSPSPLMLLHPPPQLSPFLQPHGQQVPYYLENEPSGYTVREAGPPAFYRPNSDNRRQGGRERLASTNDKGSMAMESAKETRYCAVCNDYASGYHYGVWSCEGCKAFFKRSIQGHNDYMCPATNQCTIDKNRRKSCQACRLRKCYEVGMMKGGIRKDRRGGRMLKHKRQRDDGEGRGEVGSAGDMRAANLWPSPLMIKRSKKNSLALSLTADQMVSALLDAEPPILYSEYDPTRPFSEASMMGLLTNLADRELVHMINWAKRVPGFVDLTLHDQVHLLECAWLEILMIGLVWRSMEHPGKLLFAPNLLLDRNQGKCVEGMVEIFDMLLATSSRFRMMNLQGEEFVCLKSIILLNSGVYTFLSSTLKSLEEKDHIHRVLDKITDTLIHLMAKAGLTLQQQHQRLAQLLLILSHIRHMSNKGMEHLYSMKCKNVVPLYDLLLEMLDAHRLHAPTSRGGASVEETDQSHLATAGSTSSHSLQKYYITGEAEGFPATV

[4] = biological target: Voltage-gated inwardly rectifying potassium channel KCNH2 (Homo sapiens, UniProt Q12809); details: hek293
[5] = biological target: Cytochrome P450 2D6 (Homo sapiens, UniProt P10635); details: bti-tn-5b1-4
[6] = biological target: Estrogen receptor beta (Homo sapiens, UniProt Q92731); details: sf9
[7] = biological target: Cytochrome P450 2C9 (Homo sapiens, UniProt P11712); details: bti-tn-5b1-4
[8] = biological target: T3, Cytochrome P450 1A2 (Homo sapiens, UniProt P05177); details: bti-tn-5b1-4
T3 sequence (P05177 whole entry): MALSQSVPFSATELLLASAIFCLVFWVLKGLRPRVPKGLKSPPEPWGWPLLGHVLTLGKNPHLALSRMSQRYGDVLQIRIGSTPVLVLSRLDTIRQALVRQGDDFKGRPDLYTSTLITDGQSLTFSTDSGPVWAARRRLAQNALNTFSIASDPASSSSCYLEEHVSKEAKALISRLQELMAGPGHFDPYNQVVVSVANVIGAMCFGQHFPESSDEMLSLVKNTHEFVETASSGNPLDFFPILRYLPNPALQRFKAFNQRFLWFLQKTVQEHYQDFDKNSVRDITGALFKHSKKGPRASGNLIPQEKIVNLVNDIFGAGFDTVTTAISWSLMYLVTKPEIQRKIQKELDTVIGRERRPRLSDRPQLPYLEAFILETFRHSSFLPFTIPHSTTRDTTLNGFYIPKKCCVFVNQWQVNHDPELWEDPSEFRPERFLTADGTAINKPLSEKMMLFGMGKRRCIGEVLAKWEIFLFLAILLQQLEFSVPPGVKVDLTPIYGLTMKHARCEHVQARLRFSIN

[9] = biological target: Cytochrome P450 2C19 (Homo sapiens, UniProt P33261); details: bti-tn-5b1-4
Also: in other assays of this panel Not Active means under 50% inhibition at 10 µM.

Chain of Cytochrome P450 3A4 (P08684 whole entry): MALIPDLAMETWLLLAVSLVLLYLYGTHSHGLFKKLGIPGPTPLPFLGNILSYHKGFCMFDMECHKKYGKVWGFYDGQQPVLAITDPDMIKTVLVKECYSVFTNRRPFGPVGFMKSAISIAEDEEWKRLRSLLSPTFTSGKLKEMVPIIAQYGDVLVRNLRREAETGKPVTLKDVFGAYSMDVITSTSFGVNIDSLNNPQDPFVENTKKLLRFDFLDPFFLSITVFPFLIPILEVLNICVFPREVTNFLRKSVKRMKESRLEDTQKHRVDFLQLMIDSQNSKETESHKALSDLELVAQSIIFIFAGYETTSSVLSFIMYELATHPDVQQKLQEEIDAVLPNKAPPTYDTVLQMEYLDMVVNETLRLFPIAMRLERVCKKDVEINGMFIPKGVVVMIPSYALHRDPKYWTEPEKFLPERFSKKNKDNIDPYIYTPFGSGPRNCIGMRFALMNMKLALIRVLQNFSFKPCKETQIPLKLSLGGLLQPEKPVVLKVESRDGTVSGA
Chain of Estrogen receptor beta (Q92731 whole entry): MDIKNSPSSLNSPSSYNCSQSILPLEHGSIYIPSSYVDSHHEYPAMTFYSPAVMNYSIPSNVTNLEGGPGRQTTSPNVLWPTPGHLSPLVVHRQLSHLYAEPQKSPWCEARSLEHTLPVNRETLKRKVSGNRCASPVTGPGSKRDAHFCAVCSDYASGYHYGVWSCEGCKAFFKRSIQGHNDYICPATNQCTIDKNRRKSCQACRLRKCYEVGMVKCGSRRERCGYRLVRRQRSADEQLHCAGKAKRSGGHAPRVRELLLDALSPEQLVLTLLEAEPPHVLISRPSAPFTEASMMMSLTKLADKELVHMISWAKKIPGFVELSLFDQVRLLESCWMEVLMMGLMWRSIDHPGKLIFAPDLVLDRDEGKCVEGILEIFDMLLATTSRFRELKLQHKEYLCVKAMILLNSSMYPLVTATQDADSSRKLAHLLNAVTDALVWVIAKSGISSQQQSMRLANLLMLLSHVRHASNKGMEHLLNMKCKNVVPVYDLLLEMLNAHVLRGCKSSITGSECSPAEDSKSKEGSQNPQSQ
Chain of Cytochrome P450 2C9 (P11712 whole entry): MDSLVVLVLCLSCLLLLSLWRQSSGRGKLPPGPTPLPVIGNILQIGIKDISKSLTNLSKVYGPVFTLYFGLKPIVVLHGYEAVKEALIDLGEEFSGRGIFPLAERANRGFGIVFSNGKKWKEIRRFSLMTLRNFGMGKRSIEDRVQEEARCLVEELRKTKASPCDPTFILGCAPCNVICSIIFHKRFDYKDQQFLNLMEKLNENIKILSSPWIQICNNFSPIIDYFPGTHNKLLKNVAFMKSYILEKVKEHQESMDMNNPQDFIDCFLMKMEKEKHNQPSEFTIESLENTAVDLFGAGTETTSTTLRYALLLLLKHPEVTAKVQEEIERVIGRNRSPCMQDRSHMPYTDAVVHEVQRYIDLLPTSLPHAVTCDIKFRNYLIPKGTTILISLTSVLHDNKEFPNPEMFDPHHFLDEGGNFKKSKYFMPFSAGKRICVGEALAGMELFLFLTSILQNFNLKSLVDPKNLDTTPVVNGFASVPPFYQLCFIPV
Chain of Cytochrome P450 2D6 (P10635 whole entry): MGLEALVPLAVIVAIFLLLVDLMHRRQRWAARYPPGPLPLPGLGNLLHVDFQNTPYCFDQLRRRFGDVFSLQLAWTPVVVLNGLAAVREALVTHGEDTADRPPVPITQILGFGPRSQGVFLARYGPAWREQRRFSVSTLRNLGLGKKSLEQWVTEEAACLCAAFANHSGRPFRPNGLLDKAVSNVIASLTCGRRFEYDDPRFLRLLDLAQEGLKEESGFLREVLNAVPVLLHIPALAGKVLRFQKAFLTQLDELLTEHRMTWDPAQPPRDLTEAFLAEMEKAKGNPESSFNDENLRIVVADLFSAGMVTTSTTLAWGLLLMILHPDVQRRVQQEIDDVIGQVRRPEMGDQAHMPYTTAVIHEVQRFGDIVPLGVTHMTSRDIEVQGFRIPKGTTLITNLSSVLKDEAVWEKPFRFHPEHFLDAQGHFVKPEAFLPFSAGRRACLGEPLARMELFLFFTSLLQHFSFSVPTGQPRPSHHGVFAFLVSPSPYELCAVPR
Chain of Voltage-gated inwardly rectifying potassium channel KCNH2 (Q12809 whole entry): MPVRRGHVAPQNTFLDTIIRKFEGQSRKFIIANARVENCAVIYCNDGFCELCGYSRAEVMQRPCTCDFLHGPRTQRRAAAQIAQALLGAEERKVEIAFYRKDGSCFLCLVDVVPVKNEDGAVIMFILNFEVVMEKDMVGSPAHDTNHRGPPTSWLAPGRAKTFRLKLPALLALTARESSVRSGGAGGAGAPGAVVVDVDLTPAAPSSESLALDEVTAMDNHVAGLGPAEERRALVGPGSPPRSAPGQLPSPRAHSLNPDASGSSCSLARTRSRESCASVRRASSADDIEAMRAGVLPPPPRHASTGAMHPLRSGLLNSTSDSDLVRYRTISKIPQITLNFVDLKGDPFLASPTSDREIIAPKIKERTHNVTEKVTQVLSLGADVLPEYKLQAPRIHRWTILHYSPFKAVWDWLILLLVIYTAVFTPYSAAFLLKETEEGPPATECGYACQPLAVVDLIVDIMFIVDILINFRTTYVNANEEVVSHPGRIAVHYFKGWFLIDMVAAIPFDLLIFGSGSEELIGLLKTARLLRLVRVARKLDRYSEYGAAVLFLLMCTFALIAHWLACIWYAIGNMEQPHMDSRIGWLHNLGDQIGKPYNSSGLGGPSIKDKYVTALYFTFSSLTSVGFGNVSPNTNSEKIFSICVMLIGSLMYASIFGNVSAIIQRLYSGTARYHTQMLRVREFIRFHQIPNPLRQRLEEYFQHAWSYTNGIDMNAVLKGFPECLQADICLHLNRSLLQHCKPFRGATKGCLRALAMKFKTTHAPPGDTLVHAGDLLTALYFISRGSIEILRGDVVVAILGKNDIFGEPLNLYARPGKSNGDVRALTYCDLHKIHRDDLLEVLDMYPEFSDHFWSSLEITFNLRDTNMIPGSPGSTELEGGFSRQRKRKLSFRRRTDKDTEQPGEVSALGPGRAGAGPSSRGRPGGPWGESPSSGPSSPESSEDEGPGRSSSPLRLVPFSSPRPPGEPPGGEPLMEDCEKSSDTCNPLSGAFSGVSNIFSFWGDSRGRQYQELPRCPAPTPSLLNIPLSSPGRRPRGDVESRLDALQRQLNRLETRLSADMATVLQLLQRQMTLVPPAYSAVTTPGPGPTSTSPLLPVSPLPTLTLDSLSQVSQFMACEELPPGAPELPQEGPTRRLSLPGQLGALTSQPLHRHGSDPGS
Chain of Cytochrome P450 2C19 (P33261 whole entry): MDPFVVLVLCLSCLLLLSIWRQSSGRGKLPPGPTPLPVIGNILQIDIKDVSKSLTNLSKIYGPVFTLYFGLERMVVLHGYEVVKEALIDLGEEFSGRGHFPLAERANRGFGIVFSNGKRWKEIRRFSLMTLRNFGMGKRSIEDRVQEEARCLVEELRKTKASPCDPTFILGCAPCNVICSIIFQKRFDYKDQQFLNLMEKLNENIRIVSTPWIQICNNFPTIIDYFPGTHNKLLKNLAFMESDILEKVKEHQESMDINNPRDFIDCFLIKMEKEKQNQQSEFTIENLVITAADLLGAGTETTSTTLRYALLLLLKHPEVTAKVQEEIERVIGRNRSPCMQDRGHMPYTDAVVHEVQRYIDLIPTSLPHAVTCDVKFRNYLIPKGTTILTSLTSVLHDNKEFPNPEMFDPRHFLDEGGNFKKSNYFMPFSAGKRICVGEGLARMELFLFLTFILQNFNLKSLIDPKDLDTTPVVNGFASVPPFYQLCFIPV

O=[N+]([O-])c1cc([As](=O)(O)O)ccc1O [ROXARSONE]
Not Active: IC50 [1] | Ki [1] | IC50 [2] | Ki [2] | IC50 [3] | Ki [3] | IC50 [4] | Ki [4] | IC50 [5] | Ki [5] | IC50 [6] | Ki [6] | IC50 [7] | Ki [7] | IC50 [8] | Ki [8] | IC50 [9] | Ki [9]

CC1CN(c2cc3c(cc2F)c(=O)c(C(=O)O)cn3-c2ccc(F)cc2F)CCN1 (centres undefined) [TEMAFLOXACIN]
Not Active: IC50 [1] | Ki [1] | IC50 [2] | IC50 [3] | IC50 [4] | Ki [4] | IC50 [5] | Ki [5] | IC50 [6] | IC50 [7] | Ki [7] | IC50 [8] | Ki [8] | IC50 [9] | Ki [9]

CC1(C)[C@H]2CC[C@]1(C)C(=O)C2 [(-)-CAMPHOR]
Not Active: IC50 [1] | Ki [1] | IC50 [2] | IC50 [3] | IC50 [4] | Ki [4] | IC50 [5] | Ki [5] | IC50 [6] | IC50 [7] | Ki [7] | IC50 [8] | Ki [8] | IC50 [9] | Ki [9]

CC(CCc1ccccc1)NCC(O)c1ccc(O)c(C(N)=O)c1 (centres undefined) [LABETALOL]
Not Active: IC50 [1] | Ki [1] | IC50 [2] | IC50 [3] | IC50 [4] | Ki [4] | IC50 [6] | IC50 [7] | Ki [7] | IC50 [8] | Ki [8]

IVERMECTIN
Not Active: IC50 [1] | Ki [1] | IC50 [2] | Ki [2] | IC50 [3] | Ki [3] | IC50 [4] | Ki [4] | IC50 [5] | Ki [5] | IC50 [6] | Ki [6] | IC50 [7] | Ki [7] | IC50 [8] | Ki [8] | IC50 [9] | Ki [9]

CO[C@@H]1[C@@H](O[C@@H]2O[C@H](C)[C@@H](O[C@H]3C[C@@](C)(O)[C@@H](OC(=O)CC(C)C)[C@H](C)O3)[C@H](N(C)C)[C@H]2O)[C@@H](CC=O)C[C@@H](C)[C@@H](O)/C=C/C=C/C[C@@H](C)OC(=O)C[C@H]1O [KITASAMYCIN]
Not Active: IC50 [1] | Ki [1] | IC50 [2] | IC50 [3] | IC50 [4] | Ki [4] | IC50 [5] | Ki [5] | IC50 [6] | IC50 [7] | Ki [7] | IC50 [8] | Ki [8] | IC50 [9] | Ki [9]

CN(N=O)C(=O)N[C@@H](C=O)[C@@H](O)[C@H](O)[C@H](O)CO [STREPTOZOCIN]
Not Active: IC50 [1] | Ki [1] | IC50 [2] | IC50 [3] | IC50 [4] | Ki [4] | IC50 [5] | Ki [5] | IC50 [6] | IC50 [7] | Ki [7] | IC50 [8] | Ki [8] | IC50 [9] | Ki [9]

CN1CCN2c3ccccc3Cc3ccccc3C2C1 (centres undefined) [MIANSERIN]
Not Active: IC50 [1] | Ki [1] | IC50 [2] | IC50 [3] | IC50 [4] | Ki [4] | IC50 [5] | Ki [5] | IC50 [6] | IC50 [7] | Ki [7] | IC50 [9] | Ki [9]

CN[C@H](CC(C)C)C(=O)N[C@H]1C(=O)N[C@@H](CC(N)=O)C(=O)N[C@H]2C(=O)N[C@H]3C(=O)N[C@H](C(=O)N[C@H](C(=O)O)c4cc(O)cc(O)c4-c4cc3ccc4O)[C@H](O)c3ccc(c(Cl)c3)Oc3cc2cc(c3O[C@@H]2O[C@H](CO)[C@@H](O)[C@H](O)[C@H]2O[C@H]2C[C@](C)(N)[C@H](O)[C@H](C)O2)Oc2ccc(cc2Cl)[C@H]1O [VANCOMYCIN]
Not Active: IC50 [1] | Ki [1] | IC50 [2] | IC50 [3] | IC50 [4] | Ki [4] | IC50 [5] | Ki [5] | IC50 [6] | IC50 [8] | Ki [8] | IC50 [9] | Ki [9]

Nc1ccc(S(=O)(=O)Nc2ccnn2-c2ccccc2)cc1 [SULFAPHENAZOLE]
Not Active: IC50 [1] | Ki [1] | IC50 [2] | IC50 [3] | IC50 [4] | Ki [4] | IC50 [5] | Ki [5] | IC50 [6] | IC50 [8] | Ki [8] | IC50 [9] | Ki [9]

C=CC[C@@H]1/C=C(\C)C[C@H](C)C[C@H](OC)[C@H]2O[C@@](O)(C(=O)C(=O)N3CCCC[C@H]3C(=O)O[C@H](/C(C)=C/[C@@H]3CC[C@@H](O)[C@H](OC)C3)[C@H](C)[C@@H](O)CC1=O)[C@H](C)C[C@@H]2OC [TACROLIMUS ANHYDROUS]
Not Active: IC50 [2] | IC50 [3] | IC50 [4] | Ki [4] | IC50 [5] | Ki [5] | IC50 [6] | IC50 [7] | Ki [7] | IC50 [8] | Ki [8] | IC50 [9] | Ki [9]
